Ten molecules from ChEMBL document CHEMBL4406909, “Synthesis and evaluation of 1,3,5-triazine derivatives as sunscreens useful to prevent skin cancer” (Bioorg Med Chem Lett, 2019) can be followed below.

The nature of data set [1]: Thermal stability of compound in DMSO/methanol assessed as mass loss by UV spectroscopic method. The class given is physicochemical. Conditions: read-out: Drug degradation.
The nature of data set [2]: Antioxidant activity assessed as DPPH free radical scavenging activity at 300 uM incubated for 60 mins by spectrophotometric method relative to control. The format is functional.
A short description of data set [3]: Thermal stability of compound in DMSO/methanol assessed as decomposition temperature by UV spectroscopic method. The format is physicochemical.
Data set [4] in a line: Antioxidant activity assessed as DPPH free radical scavenging activity at 200 uM incubated for 60 mins by spectrophotometric method relative to control. The class given is functional.
A short description of data set [5]: Thermal stability of compound in DMSO/methanol assessed as onset temperature by UV spectroscopic method. The format is physicochemical.
Data set [6] in a line: Antioxidant activity assessed as DPPH free radical scavenging activity at 100 uM incubated for 60 mins by spectrophotometric method relative to control. The class given is functional.
Data set [7] in a line: Photoprotection activity against UV radiation.
The nature of data set [8]: Antioxidant activity assessed as DPPH free radical scavenging activity at 400 uM incubated for 60 mins by spectrophotometric method relative to control. The class given is functional.
Data set [9] in a line: Photoprotection activity against UV radiation assessed as ratio of UVA to UVB.

In the case of `O=C(N/N=C/c1ccc(Oc2nc(Oc3ccc(/C=N/NC(=O)c4ccccc4)cc3)nc(Oc3ccc(/C=N/NC(=O)c4ccccc4)cc3)n2)cc1)c1ccccc1`, in data set [1], the degraded is 36.7%. In addition, the Activity worked out at 2% in [2], 1.3% in [4], 0.9% in [6] and 2.4% in data set [8]. The T in data set [3] came to 294.21 °C; in data set [5] it was 275.89 °C. Also, in data set [7], the SPF worked out at 9. Besides, the UVAPF in data set [7] was 5. Besides, the Ratio in [9] was found to be 0.6.

Take `CC(C)(C)c1ccc(C(=O)N/N=C/c2ccc(Oc3nc(Oc4ccc(/C=N/NC(=O)c5ccc(C(C)(C)C)cc5)cc4)nc(Oc4ccc(/C=N/NC(=O)c5ccc(C(C)(C)C)cc5)cc4)n3)cc2)cc1`: in [1], the degraded was determined as 41.2%. In addition, the Activity in data set [2] came to 4.8%; in data set [4], 4.3%; in [6] it was 4%; in [8], 5.9%. The T in data set [3] was 326.22 °C; in data set [5], 324.37 °C. The same molecule returned an SPF in data set [7] of 14. In [7], the UVAPF was 7. The Ratio in data set [9] is 0.5.

Take `O=C(N/N=C/c1ccc(Oc2nc(Oc3ccc(/C=N/NC(=O)c4ccc([N+](=O)[O-])cc4)cc3)nc(Oc3ccc(/C=N/NC(=O)c4ccc([N+](=O)[O-])cc4)cc3)n2)cc1)c1ccc([N+](=O)[O-])cc1`: the degraded in data set [1] turned out to be 37.3%. Also, the Activity in data set [2] came to 2.7%; in data set [4], 2.2%; in [6], 0.5%; in data set [8] it was 3.5%. Also, the T came out at 304.87 °C in [3] and 291.8 °C in data set [5]. Further, in [7], the SPF was 4. In [7], this molecule came in with a UVAPF of 3. Also, the Ratio in data set [9] was determined as 0.8.

On to `O=C(N/N=C/c1ccc(Oc2nc(Oc3ccc(/C=N/NC(=O)c4ccncc4)cc3)nc(Oc3ccc(/C=N/NC(=O)c4ccncc4)cc3)n2)cc1)c1ccncc1`, for which the degraded in [1] stood at 36.8%. For the same molecule, the Activity in data set [2] amounted to 2.4%; in data set [4], 0.5%; in data set [6], 0%; in data set [8], 6.1%. Further, the T in [3] was found to be 236.25 °C; in data set [5], 235.6 °C. The SPF in [7] was found to be 5. Moreover, the UVAPF in [7] is 3. Also, the Ratio in data set [9] is 0.4.

As to `O=C(N/N=C/c1ccc(Oc2nc(Oc3ccc(/C=N/NC(=O)c4cccc(O)c4)cc3)nc(Oc3ccc(/C=N/NC(=O)c4cccc(O)c4)cc3)n2)cc1)c1cccc(O)c1`, the degraded in data set [1] turned out to be 18.7%. The Activity is 5.8% in [2], 4.4% in data set [4], 4.2% in data set [6] and 6.3% in [8]. The results for the T in [3] and in data set [5] were 297.87 °C and 248.22 °C, respectively. This molecule also had an SPF in [7] of 4. The UVAPF in [7] was found to be 2. Further, the Ratio in data set [9] came out at 0.4.

For the molecule `O=C(N/N=C/c1ccc(Oc2nc(Oc3ccc(/C=N/NC(=O)c4ccc(O)cc4)cc3)nc(Oc3ccc(/C=N/NC(=O)c4ccc(O)cc4)cc3)n2)cc1)c1ccc(O)cc1`, the degraded in data set [1] came out at 11.6%. Also, the Activity in data set [2] is 6.7%; in [4], 5.6%; in data set [6], 4.4%; in [8], 8.2%. Also, the T in data set [3] is 272.15 °C; in data set [5], 267.35 °C. For the same molecule, the SPF in [7] was 7. The UVAPF in [7] was 4. Besides, the Ratio in [9] is 0.5.

For `O=C(N/N=C/c1ccc(Oc2nc(Oc3ccc(/C=N/NC(=O)c4ccc(O)cc4O)cc3)nc(Oc3ccc(/C=N/NC(=O)c4ccc(O)cc4O)cc3)n2)cc1)c1ccc(O)cc1O`, the degraded in data set [1] turned out to be 39.8%. In addition, the Activity in data set [2] stood at 75.1%; in data set [4] it was 74.2%; in [6] it was 55.3%; in [8], 75.6%. For the same molecule, the figures for the T in [3] and in data set [5] were 309.94 °C and 218.88 °C, respectively. For the same molecule, the SPF in [7] stood at 3. The UVAPF in data set [7] worked out at 2. The Ratio in data set [9] is 0.5.

`Oc1ccc(/C=C/c2cc(O)cc(O)c2)cc1` [RESVERATROL]: the degraded in [1] came to 32.9%. For the same molecule, the Activity in data set [2] was 56.2%; in data set [4], 55.9%; in data set [6] it was 46.8%; in data set [8] it was 62.2%. Also, the values for the T in data set [3] and in data set [5] were 266.95 °C and 263.46 °C, respectively. This molecule came in with an SPF in [7] of 2. This molecule also showed a UVAPF in data set [7] of 2. Further, the Ratio in data set [9] came out at 0.7.

Regarding `CCCCC(CC)COC(=O)c1ccc(Nc2nc(Nc3ccc(C(=O)OCC(CC)CCCC)cc3)nc(Nc3ccc(C(=O)OCC(CC)CCCC)cc3)n2)cc1` (stereo not given), the degraded in data set [1] amounted to 68.7%. Also, the Activity in data set [2] is 2.6%; in data set [4] it was 1.6%; in [6], 0%; in [8] it was 3.5%. Also, the T is 232.29 °C in [3] and 119.99 °C in data set [5]. For the same molecule, the SPF in data set [7] was found to be 3. The UVAPF in data set [7] was determined as 3. Besides, the Ratio in [9] stood at 0.8.

As to `O=C(N/N=C/c1ccc(Oc2nc(Oc3ccc(/C=N/NC(=O)c4ccccc4O)cc3)nc(Oc3ccc(/C=N/NC(=O)c4ccccc4O)cc3)n2)cc1)c1ccccc1O`, the degraded in [1] was 19.6%. For the same molecule, the Activity in [2] amounted to 0.3%; in data set [4] it was 0%; in data set [6], 0%; in data set [8], 0.8%. In addition, the T in [3] is 269.71 °C; in data set [5], 264.89 °C. Further, the SPF in data set [7] is 17. Besides, in [7], the UVAPF came out at 13. The Ratio in data set [9] was determined as 0.7.
